Assay results as given in patent publication US20020091107A1 (published 2002).

CC(=O)NC[C@H]1CN(c2ccc(/C=C3/C(=O)N(C)c4ccccc43)cc2)C(=O)O1
melting point: 193 to 195 °C

CC(=O)NC[C@H]1CN(c2ccc(/C=C3\C(=O)N(c4ccccc4)N=C3C(C)(C)C)cc2)C(=O)O1
melting point: 70 °C
